This is an account of results in PMC5218480 (PLoS ONE, 2017).

The assay has as its system MV-4-11 cells. Kind of assay: Gene expression microarray analysis (Affymetrix PrimeView) and GSEA. Format: cell-based, human. Set-up: RFU PODN (11730768_x_at) / Fold change /veh PODN (11730768_x_at) / RFU LINC00158 (11744669_a_at) / Fold change /veh LINC00158 (11744669_a_at) / RFU DUSP10 (11751237_a_at) / Fold change /veh DUSP10 (11751237_a_at) / RFU ID3 (11757404_x_at) / Fold change /veh ID3 (11757404_x_at) / RFU PLEKHG5 (11737974_s_at) / Fold change /veh PLEKHG5 (11737974_s_at) / RFU LRRC4B (11730491_at) / Fold change /veh LRRC4B (11730491_at) / RFU GIMAP4 (11747438_a_at) / Fold change /veh GIMAP4 (11747438_a_at) / RFU KRT8 (11758183_x_at) / Fold change /veh KRT8 (11758183_x_at) / RFU CNN1 (11734310_a_at) / Fold change /veh CNN1 (11734310_a_at) / RFU VPS37D (11726825_at) / Fold change /veh VPS37D (11726825_at) / RFU C10orf10 (11716522_x_at) / Fold change /veh C10orf10 (11716522_x_at) / RFU KIR2DL2 /// KIR2DL4 /// KIR2DL5A /// KIR2DL5B /// KIR2DS1 /// KIR2DS2 /// KIR2DS3 /// KIR2DS4 /// KIR3DL3 /// KIR3DL3 /// KIR3DS1 (11738374_at) / Fold change /veh KIR2DL2 /// KIR2DL4 /// KIR2DL5A /// KIR2DL5B /// KIR2DS1 /// KIR2DS2 /// KIR2DS3 /// KIR2DS4 /// KIR3DL3 /// KIR3DL3 /// KIR3DS1 (11738374_at) / RFU C1QL1 (11718748_at) / Fold change /veh C1QL1 (11718748_at) / RFU TMPRSS4 (11747572_a_at) / Fold change /veh TMPRSS4 (11747572_a_at) / RFU HAMP (11756126_x_at) / Fold change /veh HAMP (11756126_x_at) / RFU RNFT2 (11725882_a_at) / Fold change /veh RNFT2 (11725882_a_at) / RFU NR4A2 (11747474_a_at) / Fold change /veh NR4A2 (11747474_a_at) / RFU ABCC12 (11746883_a_at) / Fold change /veh ABCC12 (11746883_a_at) / RFU TMEM136 (11760407_x_at) / Fold change /veh TMEM136 (11760407_x_at) / RFU CLDN22 /// WWC2 (11732394_at) / Fold change /veh CLDN22 /// WWC2 (11732394_at) / RFU HLA-DPB1 (11760878_x_at) / Fold change /veh HLA-DPB1 (11760878_x_at) / RFU SPINT1 (11716480_a_at) / Fold change /veh SPINT1 (11716480_a_at) / RFU GAP43 (11754022_s_at) / Fold change /veh GAP43 (11754022_s_at) / RFU A4GNT (11735810_at) / Fold change /veh A4GNT (11735810_at) / RFU PRB3 (11715151_x_at) / Fold change /veh PRB3 (11715151_x_at) / RFU TUBB4B (11761932_at) / Fold change /veh TUBB4B (11761932_at) / RFU CAPN14 (11732068_a_at) / Fold change /veh CAPN14 (11732068_a_at) / RFU TMCC2 (11721928_a_at) / Fold change /veh TMCC2 (11721928_a_at) / RFU IRGQ (11745062_a_at) / Fold change /veh IRGQ (11745062_a_at) / RFU FAM174B (11720279_a_at) / Fold change /veh FAM174B (11720279_a_at) / RFU TMPRSS4 (11748680_a_at) / Fold change /veh TMPRSS4 (11748680_a_at) / RFU FAM212B (11763350_a_at) / Fold change /veh FAM212B (11763350_a_at) / RFU PLEKHG5 (11743358_a_at) / Fold change /veh PLEKHG5 (11743358_a_at) / RFU ZSCAN30 (11745921_a_at) / Fold change /veh ZSCAN30 (11745921_a_at) / RFU CMKLR1 (11741424_a_at) / Fold change /veh CMKLR1 (11741424_a_at) / RFU LOC101060620 /// MAPK8IP1 (11723275_at) / Fold change /veh LOC101060620 /// MAPK8IP1 (11723275_at) / RFU SPTSSB (11747773_x_at) / Fold change /veh SPTSSB (11747773_x_at) / RFU PRSS12 (11739890_at) / Fold change /veh PRSS12 (11739890_at) / RFU BIN1 (11741810_x_at) / Fold change /veh BIN1 (11741810_x_at) / RFU WNT11 (11732464_a_at) / Fold change /veh WNT11 (11732464_a_at) / RFU C10orf10 (11716521_a_at) / Fold change /veh C10orf10 (11716521_a_at) / RFU C5orf56 (11738089_at) / Fold change /veh C5orf56 (11738089_at) / RFU CYB561 (11721691_x_at) / Fold change /veh CYB561 (11721691_x_at) / RFU ANKRD19P (11752326_a_at) / Fold change /veh ANKRD19P (11752326_a_at) / RFU OR2T12 /// OR2T33 /// OR2T8 (11738714_s_at) / Fold change /veh OR2T12 /// OR2T33 /// OR2T8 (11738714_s_at) / RFU VCAN (11748164_a_at) / Fold change /veh VCAN (11748164_a_at) / RFU JSRP1 (11732532_at) / Fold change /veh JSRP1 (11732532_at) / RFU KRTAP10-11 (11738290_x_at) / Fold change /veh KRTAP10-11 (11738290_x_at) / RFU MYO3A (11730013_a_at) / Fold change /veh MYO3A (11730013_a_at) / RFU EBF3 (11725865_a_at) / Fold change /veh EBF3 (11725865_a_at) / RFU CAMK2N1 (11719241_x_at) / Fold change /veh CAMK2N1 (11719241_x_at) / RFU C5orf56 (11738088_a_at) / Fold change /veh C5orf56 (11738088_a_at) / RFU OLFML3 (11715873_a_at) / Fold change /veh OLFML3 (11715873_a_at) / RFU LOC100653217 /// NTM (11731650_a_at) / Fold change /veh LOC100653217 /// NTM (11731650_a_at) / RFU MAPK11 (11762145_a_at) / Fold change /veh MAPK11 (11762145_a_at) / RFU FIZ1 (11724087_x_at) / Fold change /veh FIZ1 (11724087_x_at) / RFU OASL (11726364_x_at) / Fold change /veh OASL (11726364_x_at) / RFU SOX15 (11748057_x_at) / Fold change /veh SOX15 (11748057_x_at) / RFU CD79A (11719716_a_at) / Fold change /veh CD79A (11719716_a_at) / RFU HIST1H1D (11736915_at) / Fold change /veh HIST1H1D (11736915_at) / RFU CASKIN2 (11723855_a_at) / Fold change /veh CASKIN2 (11723855_a_at) / RFU LOC730098 (11760151_x_at) / Fold change /veh LOC730098 (11760151_x_at) / RFU OR4N2 (11742367_at) / Fold change /veh OR4N2 (11742367_at) / RFU PRRT2 (11749266_a_at) / Fold change /veh PRRT2 (11749266_a_at) / RFU SNX32 (11753110_a_at) / Fold change /veh SNX32 (11753110_a_at) / RFU CDHR5 (11726645_a_at) / Fold change /veh CDHR5 (11726645_a_at) / RFU RCAN1 (11760418_a_at) / Fold change /veh RCAN1 (11760418_a_at) / RFU FAM167A (11723789_a_at) / Fold change /veh FAM167A (11723789_a_at) / RFU FAM26E (11764081_at) / Fold change /veh FAM26E (11764081_at) / RFU ISYNA1 (11749810_s_at) / Fold change /veh ISYNA1 (11749810_s_at) / RFU ACY1 (11761880_at) / Fold change /veh ACY1 (11761880_at) / RFU 11764098_at / Fold change /veh 11764098_at / RFU SAMD14 (11745864_x_at) / Fold change /veh SAMD14 (11745864_x_at) / RFU NPB (11741838_a_at) / Fold change /veh NPB (11741838_a_at) / RFU TMPRSS6 (11731388_a_at) / Fold change /veh TMPRSS6 (11731388_a_at) / RFU KRTAP10-2 (11738614_at) / Fold change /veh KRTAP10-2 (11738614_at) / RFU ARHGAP8 /// PRR5-ARHGAP8 (11727945_x_at) / Fold change /veh ARHGAP8 /// PRR5-ARHGAP8 (11727945_x_at) / RFU KRTAP5-7 /// NADSYN1 (11734609_at) / Fold change /veh KRTAP5-7 /// NADSYN1 (11734609_at) / RFU RASL12 (11751679_a_at) / Fold change /veh RASL12 (11751679_a_at) / RFU CDKN2B (11736163_a_at) / Fold change /veh CDKN2B (11736163_a_at) / RFU PRF1 (11729649_at) / Fold change /veh PRF1 (11729649_at) / RFU, ZNF638 /// ZNF638-IT1 / Fold change vs veh, ZNF638 /// ZNF638-IT1 / RFU, PANK3 / Fold change vs veh, PANK3 / RFU, SH3YL1 / Fold change vs veh, SH3YL1 / RFU, ZEB2 / Fold change vs veh, ZEB2 / RFU, NRIP1 / Fold change vs veh, NRIP1 / RFU, PTTG1IP / Fold change vs veh, PTTG1IP / RFU, CAPN2 / Fold change vs veh, CAPN2 / RFU, MED14 / Fold change vs veh, MED14 / RFU, SNORA58 / Fold change vs veh, SNORA58 / RFU, C1orf63 / Fold change vs veh, C1orf63 / RFU, LRRFIP1 / Fold change vs veh, LRRFIP1 / RFU, NDUFAF7 / Fold change vs veh, NDUFAF7 / RFU, SLC12A2 / Fold change vs veh, SLC12A2 / RFU, IBTK / Fold change vs veh, IBTK / RFU, ESF1 / Fold change vs veh, ESF1 / Fold change vs veh, TMEM50B / RFU, TAOK1 / Fold change vs veh, TAOK1 / RFU, ACBD3 / Fold change vs veh, ACBD3 / RFU, TMA16 / Fold change vs veh, TMA16 / RFU, RWDD3 / Fold change vs veh, RWDD3 / RFU, BCAT1 / Fold change vs veh, BCAT1 / RFU, EDEM3 / Fold change vs veh, EDEM3 / RFU, TMEM33 / Fold change vs veh, TMEM33 / RFU, WDR75 / Fold change vs veh, WDR75 / RFU, AHCTF1 / Fold change vs veh, AHCTF1 / RFU, TFRC / Fold change vs veh, TFRC / RFU, ZDHHC17 / Fold change vs veh, ZDHHC17 / RFU, NOM1 / Fold change vs veh, NOM1 / RFU, ARL8B / Fold change vs veh, ARL8B / RFU, ZBTB11 / Fold change vs veh, ZBTB11 / RFU, TAMM41 / Fold change vs veh, TAMM41 / RFU, KIAA1704 /// LOC100996395 / Fold change vs veh, KIAA1704 /// LOC100996395 / RFU, ING1 / Fold change vs veh, ING1 / RFU, TRMT61B / Fold change vs veh, TRMT61B / RFU, FUBP3 / Fold change vs veh, FUBP3 / RFU, TP53 / Fold change vs veh, TP53 / RFU, TNKS2 / Fold change vs veh, TNKS2 / RFU, ZFP14 / Fold change vs veh, ZFP14 / RFU, ACTR2 / Fold change vs veh, ACTR2 / RFU, PPP3R1 / Fold change vs veh, PPP3R1 / RFU, PIK3R1 / Fold change vs veh, PIK3R1 / RFU, HNRNPA1 / Fold change vs veh, HNRNPA1 / RFU, RNF170 / Fold change vs veh, RNF170 / RFU, ZNF28 / Fold change vs veh, ZNF28 / RFU, RNGTT / Fold change vs veh, RNGTT / RFU, OGT / Fold change vs veh, OGT / RFU, BRD1 / Fold change vs veh, BRD1 / RFU, MARS / Fold change vs veh, MARS / RFU, ZNF655 / Fold change vs veh, ZNF655 / RFU, FAHD1 / Fold change vs veh, FAHD1 / RFU, BDP1 / Fold change vs veh, BDP1 / RFU, LRRCC1 / Fold change vs veh, LRRCC1 / RFU, ARID1A / Fold change vs veh, ARID1A / RFU, ZNF146 / Fold change vs veh, ZNF146 / RFU, ZNF330 / Fold change vs veh, ZNF330 / RFU, GPN3 / Fold change vs veh, GPN3 / RFU, C9orf123 / Fold change vs veh, C9orf123 / RFU, N4BP2L2 / Fold change vs veh, N4BP2L2 / RFU, ARFIP1 / Fold change vs veh, ARFIP1 / RFU, FAM179B / Fold change vs veh, FAM179B / RFU, BCL10 / Fold change vs veh, BCL10 / RFU, UHRF1BP1L / Fold change vs veh, UHRF1BP1L / RFU, BET1 / Fold change vs veh, BET1 / RFU, CNOT2 / Fold change vs veh, CNOT2 / RFU, ZNF268 / Fold change vs veh, ZNF268 / Fold change vs veh, ZNF507 / RFU, DGCR2 / Fold change vs veh, DGCR2 / RFU, WDSUB1 / Fold change vs veh, WDSUB1 / Fold change vs veh, HSP90B1 /// MIR3652 / RFU, ADSS / Fold change vs veh, ADSS / RFU, GK / Fold change vs veh, GK / RFU, ZNF148 / Fold change vs veh, ZNF148 / RFU, TAF9 / Fold change vs veh, TAF9 / RFU, SLC1A5 / Fold change vs veh, SLC1A5 / RFU, SLMO2 / Fold change vs veh, SLMO2 / RFU, ABCC4 / Fold change vs veh, ABCC4 / RFU, LOC101060439 /// RAP1B / Fold change vs veh, LOC101060439 /// RAP1B / RFU, RFX7 / Fold change vs veh, RFX7 / RFU, GTPBP10 / Fold change vs veh, GTPBP10 / RFU, CNEP1R1 / Fold change vs veh, CNEP1R1 / RFU, BIVM-ERCC5 /// ERCC5 / Fold change vs veh, BIVM-ERCC5 /// ERCC5 / RFU, ILF3 / Fold change vs veh, ILF3 / RFU 11762660_at / Fold change /veh 11762660_at / RFU VCAN (11757783_s_at) / Fold change /veh VCAN (11757783_s_at) / RFU DDX43 (11728927_at) / Fold change /veh DDX43 (11728927_at) / RFU KRT8 (11758188_x_at) / Fold change /veh KRT8 (11758188_x_at) / RFU NKD1 (11759106_at) / Fold change /veh NKD1 (11759106_at) / RFU SRD5A1 (11742802_a_at) / Fold change /veh SRD5A1 (11742802_a_at) / RFU TPSAB1 /// TPSB2 (11721975_s_at) / Fold change /veh TPSAB1 /// TPSB2 (11721975_s_at) / RFU GSTM3 (11746129_a_at) / Fold change /veh GSTM3 (11746129_a_at) / RFU IL23R (11737362_x_at) / Fold change /veh IL23R (11737362_x_at) / RFU TMEM51 (11727254_a_at) / Fold change /veh TMEM51 (11727254_a_at) / RFU PIWIL2 (11732686_x_at) / Fold change /veh PIWIL2 (11732686_x_at) / RFU ORM1 (11744905_x_at) / Fold change /veh ORM1 (11744905_x_at) / RFU CCDC152 (11743942_at) / Fold change /veh CCDC152 (11743942_at) / RFU ECM1 (11717891_a_at) / Fold change /veh ECM1 (11717891_a_at) / RFU IL23R (11748794_a_at) / Fold change /veh IL23R (11748794_a_at) / RFU TNFAIP8L3 (11732012_x_at) / Fold change /veh TNFAIP8L3 (11732012_x_at) / RFU MBOAT4 (11741988_at) / Fold change /veh MBOAT4 (11741988_at) / RFU 11764193_at / Fold change /veh 11764193_at / RFU TMEM53 (11763286_at) / Fold change /veh TMEM53 (11763286_at) / RFU MAGEB2 (11727129_at) / Fold change /veh MAGEB2 (11727129_at) / RFU TMEM200A (11744735_a_at) / Fold change /veh TMEM200A (11744735_a_at) / RFU CCDC152 (11751479_a_at) / Fold change /veh CCDC152 (11751479_a_at) / RFU FAM211A (11726209_a_at) / Fold change /veh FAM211A (11726209_a_at) / RFU RGS16 (11746705_a_at) / Fold change /veh RGS16 (11746705_a_at) / RFU VCAN (11755009_s_at) / Fold change /veh VCAN (11755009_s_at) / RFU RHOB (11743442_s_at) / Fold change /veh RHOB (11743442_s_at) / RFU RGS16 (11720943_a_at) / Fold change /veh RGS16 (11720943_a_at) / RFU RGS16 (11720944_at) / Fold change /veh RGS16 (11720944_at) / RFU, VPS4B / Fold change vs veh, VPS4B / RFU, CREB1 / Fold change vs veh, CREB1 / RFU, DNAJC13 / Fold change vs veh, DNAJC13 / RFU, GNAQ / Fold change vs veh, GNAQ / RFU, CDK5R1 / Fold change vs veh, CDK5R1 / RFU, ZRANB3 / Fold change vs veh, ZRANB3 / RFU, CUL4A / Fold change vs veh, CUL4A / RFU, CCNY / Fold change vs veh, CCNY / RFU, UFL1 / Fold change vs veh, UFL1 / RFU, COG3 / Fold change vs veh, COG3 / RFU, DIAPH2 / Fold change vs veh, DIAPH2 / RFU, SKA2 / Fold change vs veh, SKA2 / RFU, AFF3 / Fold change vs veh, AFF3 / RFU, LMF1 / Fold change vs veh, LMF1 / RFU, IPO11 / Fold change vs veh, IPO11 / RFU, DFFB / Fold change vs veh, DFFB / RFU, FOXP1 / Fold change vs veh, FOXP1 / RFU, CARD8 / Fold change vs veh, CARD8 / RFU, STRN3 / Fold change vs veh, STRN3 / RFU, ADK / Fold change vs veh, ADK / RFU, RASSF2 / Fold change vs veh, RASSF2 / RFU, WIPF1 / Fold change vs veh, WIPF1 / RFU, LARP1B / Fold change vs veh, LARP1B / RFU, RASA1 / Fold change vs veh, RASA1 / RFU, RB1 / Fold change vs veh, RB1 / RFU, PPFIA1 / Fold change vs veh, PPFIA1 / RFU, MAT2A / Fold change vs veh, MAT2A / RFU, CCT5 / Fold change vs veh, CCT5 / RFU, WDR92 / Fold change vs veh, WDR92 / RFU, CUX1 / Fold change vs veh, CUX1 / RFU, TTC7A / Fold change vs veh, TTC7A / RFU, TMEM135 / Fold change vs veh, TMEM135 / RFU, DEPTOR / Fold change vs veh, DEPTOR / RFU, CPM / Fold change vs veh, CPM / RFU, DNAJB6 / Fold change vs veh, DNAJB6 / RFU, CACNA2D3 / Fold change vs veh, CACNA2D3 / RFU, DTX4 / Fold change vs veh, DTX4 / RFU, TFCP2 / Fold change vs veh, TFCP2 / RFU, GMCL1 /// GMCL1P1 / Fold change vs veh, GMCL1 /// GMCL1P1 / RFU, AEBP2 / Fold change vs veh, AEBP2 / RFU, SNHG1 /// SNORD22 /// SNORD25 /// SNORD26 /// SNORD27 /// SNORD28 /// SNORD29 /// SNORD31 / Fold change vs veh, SNHG1 /// SNORD22 /// SNORD25 /// SNORD26 /// SNORD27 /// SNORD28 /// SNORD29 /// SNORD31 / Fold change (Aza/veh), C12orf56 (ProbeSet 11735607_a_at) / Fold change (ACY-1035/veh), C12orf56 (ProbeSet 11735607_a_at) / Fold change (Aza/veh), FGFR1OP (ProbeSet 11751329_s_at) / Fold change (ACY-1035/veh), FGFR1OP (ProbeSet 11751329_s_at) / Fold change (Aza/veh), VPS36 (ProbeSet 11739960_a_at) / Fold change (ACY-1035/veh), VPS36 (ProbeSet 11739960_a_at) / RFU SYPL1 (11715823_x_at) / Fold change /veh SYPL1 (11715823_x_at) / RFU IGFBP7 (11715501_s_at) / Fold change /veh IGFBP7 (11715501_s_at) / RFU REEP3 (11722064_at) / Fold change /veh REEP3 (11722064_at) / RFU IGLL1 (11728026_x_at) / Fold change /veh IGLL1 (11728026_x_at): dose or concentration left out as unconfirmed. Particulars: MV-4-11 cells, 48 hours.

Turning to `Nc1ccc(-c2cccs2)cc1NC(=O)c1ccc2c(c1)cc(C1CC1)n2CCN1CCOCC1` [ACY-1035], the “RFU LRRC4B (11730491_at)” value worked out at 28.30 RFU.
